In patent US20240334934A1, “FUNGICIDE MIXTURE” (priority 2021, published 2024):
Where two headings read alike, the source gives them in different places.

Assays:
[1] = system: Zymoseptoria tritici K6105; assay: Efficacy of mixtures of streptimidone and CtmC, liquid culture in PDB, optical density 620 nm; format: cell-based
[2] = system: Zymoseptoria tritici K6420; assay: as above; format: cell-based; conditions: K6420, read-out: % Efficacy
Microdochium nivale = assay: as above; format: cell-based; conditions: read-out: % Efficacy
Zymoseptoria tritici = assay: Efficacy of purified CtmC in-vitro, microtiter plate growth inhibition; format: cell-based; conditions: rate 10 ppm; 72 hrs at 24° C.
Procedure: CtmC was dissolved in DMSO (Dimethylsulfoxid) to a final concentration of 1000 ppm to create a stock solution. A second dilutions of 1:10 was made in water+0.025% Tween 20. From this second dilution 10 μl are dispensed into a 96-well plate. To each well, 90 μl of medium with fungal spores are added and mixed, resulting in final CtmC concentrations of 10 ppm. All wells containing CtmC also contain DMSO (1%) and Tween 20 (0.0025%).
Zymoseptoria tritici (Septoria leaf blotch): Conidia of the fungus from cryogenic storage were directly mixed into nutrient broth (PDB potato dextrose broth). After placing a solution of the test compounds into a microtiter plate (96-well format) the nutrient broth containing the fungal spores was added.

Phakopsora pachyrhizi = assay: Leaf disc assay, soybean leaf disks, preventive; format: in vivo; conditions: rate 20 ppm, approx. 12 dpi
Procedure: A CtmC stock was generated at 1000 ppm in DMSO, then Diluted 1:50 in water+Tween 20 at 0.025% resulting in a 20 ppm solution.
Phakopsora pachyrhizi (Asian Soybean rust): Soybean leaf disks are placed on agar in multiwell plates (24-well format) and sprayed with test solutions. After drying, the leaf disks are inoculated with a spore suspension of the fungus. After appropriate incubation the activity of a compound is assessed approx. 12 dpi (days after inoculation) as preventive fungicidal activity

Puccinia triticina = assay: Greenhouse test, wheat, preventative; format: in vivo; conditions: 2 days preventative, EC50 formulation
Procedure: (§1) Purified Cyclothiazomycin C (CtmC) was formulated as an EC50 formulation. The formulation was diluted in water at rates of 100 ppm and 50 ppm of CtmC. Plants were treated with 400 L/ha of the diluted product supplemented with an adjuvant to improve sticking and spreading, resulting in a treatment of 40 g/ha and 20 g/ha of CtmC, respectively.
Puccinia triticina (also known as recondata, Brown rust on wheat). 2-week old wheat plants cv. Arina are sprayed in a spray chamber with the formulated test compound diluted in water. […] After an incubation period of 1 day at 20° C. and 95% rh, the inoculated test plants are kept at 20° C./18° C. (day/night) and 60% rh in a greenhouse. The percentage leaf area covered by disease is assessed when an appropriate level of disease appears on untreated check plants (12-14 days after application).

Botrytis cinerea = assay: Greenhouse test, tomato, preventative; format: in vivo; conditions: 2 days preventative, EC50 formulation
Procedure: as §1
Botrytis cinerea tomato/preventative (Botrytis on tomato) 4-week old tomato plants cv. Roter Gnom are treated in a spray chamber with the formulated test compound diluted in water. The test plants are inoculated by spraying them with a spore suspension two days after application. The inoculated test plants are incubated at 20° C. and 95% rh in a greenhouse and the percentage leaf area covered by disease is assessed when an appropriate level of disease appears on untreated check plants (5-6 days after application).

Mycosphaerella arachidis = assay: Greenhouse test, peanut (groundnut), preventative; format: in vivo; conditions: 1 day preventative, EC50 formulation
Procedure: as §1
Mycosphaerella arachidis peanut/preventative (Brown leaf spot on groundnut) 3-week old peanut plants cv. Georgia Green are sprayed in a spray chamber with the formulated test compound diluted in water. The test plants are inoculated by spraying them with a spore suspension on their lower leaf surface one day after application. After an incubation period of 4 days under a plastic hood at 23° C. and 100% rh, the inoculated test plants are kept at 23° C./20° C. (day/night) and 70% rh in a greenhouse. The percentage leaf area covered by disease is assessed when an appropriate level of disease appears on untreated check plants (12-14 days after application).

[3] = system: Fusarium virguliforme isolate 1; assay: Effect of Tween 20 on efficacy of purified CtmC, EC50; format: cell-based
Text: (§2) This is contrary to our results. In order to eliminate the possibility that the fungicidal effect that we observe was down to the presence of Tween 20 we carried out some experiments like those in Example 3 but with various levels of Tween 20, including none.
(§3) The experiment at outlined in Example 3 was repeated to evaluate the EC50 values for CtmC control on Fusarium virguliforme in presence of 4 different rates of Tween20: 0% (absence of Tween 20), 0.0025%, 0.0050% […] and 0.0100%. The plate layout was identical to Example 7, except that the plates were multiplied 4 times to accommodate the different Tween 20 concentrations in the assay plate. All other experimental conditions were kept identical. Fusarium isolates were tested at 25′000 sp/ml.

[4] = system: Fusarium virguliforme isolate 2; assay: as above; format: cell-based
Text: as §2, §3

[5] = system: Fusarium langsethiae K5670; format: cell-based; conditions: CtmC 10 ppm
[6] = system: Fusarium sporotrichioides K7901; format: cell-based; conditions: CtmC 10 ppm
genus Bacillus = conditions: statement of WO2015191789, Table 6; cited from earlier work

For `C=C1NC(=O)CNC(=O)[C@H](CCCCN)NC(=O)[C@@]2(C)NC(=O)/C(=C/C)NC(=O)[C@H]3CSC(=N3)[C@@H](CC(N)=O)CC(=O)c3ccc(nc3[C@@H](C)NC(=O)[C@@H]3CCCN3C1=O)-c1nc(cs1)C1=N[C@H](CS1)C(=O)NC(=C)c1nc(cs1)-c1nc(cs1)C1=N[C@@H](CS1)C(=O)N[C@@H](C(=O)O)CS2` [CtmC, cyclothiazomycin C], the Emax at 0.0556 ppm ([1]; K6105, read-out: % Efficacy, CtmC 0.0556 ppm alone (Streptimidone 0), lower sub-table) was 0%, the Emax at 0.0556 ppm ([1]; K6105, read-out: % Efficacy, CtmC 0.0556 ppm alone (Streptimidone 0), upper sub-table) was 19% and the Emax at 0.1667 ppm ([1]; K6105, read-out: % Efficacy, CtmC 0.1667 ppm alone (Streptimidone 0), lower sub-table) was 23%. For the same compound, the Emax at 0.1667 ppm ([1]; K6105, read-out: % Efficacy, CtmC 0.1667 ppm alone (Streptimidone 0), upper sub-table) was 61%, the Emax at 0.5 ppm ([1]; K6105, read-out: % Efficacy, CtmC 0.5000 ppm alone (Streptimidone 0), lower sub-table) was 47% and the Emax at 0.5 ppm ([1]; K6105, read-out: % Efficacy, CtmC 0.5000 ppm alone (Streptimidone 0), upper sub-table) was 78%. The Emax at 0.0556 ppm [2] was 0%, the Emax at 0.1667 ppm [2] was 23% and the Emax at 0.5 ppm [2] was 47%. For the same compound, the Emax at 0.0333 ppm (Microdochium nivale) was 19%, the Emax at 0.1 ppm (Microdochium nivale) was 42% and the “control of fungal growth (%)” value (Zymoseptoria tritici) was 90%. For the same compound, the “control of fungal growth (%)” value (Phakopsora pachyrhizi) was 50%, the “efficacy 20 g/ha (%)” value (Puccinia triticina; 20 g/ha) was 81% and the “efficacy 40 g/ha (%)” value (Puccinia triticina; 40 g/ha) was 81%. For the same compound, the “efficacy 20 g/ha (%)” value (Botrytis cinerea; 20 g/ha) was 30%, the “efficacy 40 g/ha (%)” value (Botrytis cinerea; 40 g/ha) was 47% and the “efficacy 20 g/ha (%)” value (Mycosphaerella arachidis; 20 g/ha) was 56%. The “efficacy 40 g/ha (%)” value (Mycosphaerella arachidis; 40 g/ha) was 65%, the “EC50 (ppm)” value ([3]; Tween 20 0%) was 1.422 ppm and the “EC50 (ppm)” value ([3]; Tween 20 0.0025%) was 1.053 ppm. For the same compound, the “EC50 (ppm)” value ([3]; Tween 20 0.0050%) was 0.8103 ppm, the “EC50 (ppm)” value ([3]; Tween 20 0.0100%) was 1.436 ppm and the “EC50 (ppm)” value ([4]; Tween 20 0%) was 1.098 ppm. For the same compound, the “EC50 (ppm)” value ([4]; Tween 20 0.0025%) was 0.889 ppm, the “EC50 (ppm)” value ([4]; Tween 20 0.0050%) was 0.7844 ppm and the “EC50 (ppm)” value ([4]; Tween 20 0.0100%) was 1.035 ppm. For the same compound, the “efficacy (%)” value [5] was 94%, the “optical density at 620 nm” value ([5]; blank 0.053, untreated 0.346) was 0.072 and the “efficacy (%)” value [6] was 71%. For the same compound, the “optical density at 620 nm” value ([6]; blank 0.052, untreated 0.666) was 0.231 and the inhibitory activity (genus Bacillus) was “greatest inhibitory activity”.
